Results published in PubChem BioAssay AID1259407 (Chemical Carcinogenesis Research Information System (CCRIS), 2018).
The source made the active and inactive calls. The rule behind the calls is not given here.

Tested on: CCRIS mutagenicity, Ames/micronucleus/aberration tests
Test: CCRIS mutagenicity studies
[1] = Test System: AMES SALMONELLA TYPHIMURIUM, Strain/Indicator: TA98, Metabolic Activation: NONE, Method: STANDARD PLATE
[2] = Test System: AMES SALMONELLA TYPHIMURIUM, Strain/Indicator: TA98, Metabolic Activation: NONE, Method: PREINCUBATION
[3] = Test System: AMES SALMONELLA TYPHIMURIUM, Strain/Indicator: TA100, Metabolic Activation: NONE, Method: PREINCUBATION
[4] = Test System: AMES SALMONELLA TYPHIMURIUM, Strain/Indicator: TA1535, Metabolic Activation: NONE, Method: PREINCUBATION
[5] = Test System: AMES SALMONELLA TYPHIMURIUM, Strain/Indicator: TA1537, Metabolic Activation: NONE, Method: PREINCUBATION
[6] = Test System: AMES SALMONELLA TYPHIMURIUM, Strain/Indicator: TA98, Metabolic Activation: RAT, LIVER, S-9, AROCLOR 1254, Method: STANDARD PLATE
[7] = Test System: AMES SALMONELLA TYPHIMURIUM, Strain/Indicator: TA100, Metabolic Activation: NONE, Method: STANDARD PLATE
[8] = Test System: AMES SALMONELLA TYPHIMURIUM, Strain/Indicator: TA100, Metabolic Activation: RAT, LIVER, S-9, AROCLOR 1254, Method: STANDARD PLATE

c1ccc2c(c1)-c1nc3ccccc3c3c1c-2nc1ccccc13
mutagenic call [1]: inactive; negative | mutagenic call (Test System: AMES SALMONELLA TYPHIMURIUM, Strain/Indicator: TA98, Metabolic Activation: RAT LIVER S-9, AROCLOR 1254, Method: STANDARD PLATE): inactive; negative | mutagenic call (Test System: ESCHERICHIA COLI, Strain/Indicator: WP2 UVR A, Metabolic Activation: NONE, Method: STANDARD PLATE): inactive; negative | mutagenic call (Test System: ESCHERICHIA COLI, Strain/Indicator: WP2 UVR A, Metabolic Activation: RAT LIVER S-9, AROCLOR 1254, Method: STANDARD PLATE): inactive; negative

O=C1OC(=O)c2c(Br)c(Br)c(Br)c(Br)c21
mutagenic call (Test System: AMES SALMONELLA TYPHIMURIUM, Strain/Indicator: TA98, Metabolic Activation: HAMSTER, LIVER, S-9, AROCLOR 1254 (10%), Method: PREINCUBATION): inactive; negative | mutagenic call [2]: inactive; negative | mutagenic call (Test System: AMES SALMONELLA TYPHIMURIUM, Strain/Indicator: TA98, Metabolic Activation: RAT, LIVER, S-9, AROCLOR 1254 (10%), Method: PREINCUBATION): inactive; negative | mutagenic call (Test System: AMES SALMONELLA TYPHIMURIUM, Strain/Indicator: TA100, Metabolic Activation: HAMSTER, LIVER, S-9, AROCLOR 1254 (10%), Method: PREINCUBATION): inactive; negative | mutagenic call [3]: inactive; negative | mutagenic call (Test System: AMES SALMONELLA TYPHIMURIUM, Strain/Indicator: TA100, Metabolic Activation: RAT, LIVER, S-9, AROCLOR 1254 (10%), Method: PREINCUBATION): inactive; negative | mutagenic call (Test System: AMES SALMONELLA TYPHIMURIUM, Strain/Indicator: TA1535, Metabolic Activation: HAMSTER, LIVER, S-9, AROCLOR 1254 (10%), Method: PREINCUBATION): inactive; negative | mutagenic call [4]: inactive; negative | mutagenic call (Test System: AMES SALMONELLA TYPHIMURIUM, Strain/Indicator: TA1535, Metabolic Activation: RAT, LIVER, S-9, AROCLOR 1254 (10%), Method: PREINCUBATION): inactive; negative | mutagenic call (Test System: AMES SALMONELLA TYPHIMURIUM, Strain/Indicator: TA1537, Metabolic Activation: HAMSTER, LIVER, S-9, AROCLOR 1254 (10%), Method: PREINCUBATION): inactive; negative | mutagenic call [5]: inactive; negative | mutagenic call (Test System: AMES SALMONELLA TYPHIMURIUM, Strain/Indicator: TA1537, Metabolic Activation: RAT, LIVER, S-9, AROCLOR 1254 (10%), Method: PREINCUBATION): inactive; negative

ICI
mutagenic call (Test System: AMES SALMONELLA TYPHIMURIUM, Strain/Indicator: TA102, Metabolic Activation: NONE, Method: STANDARD PLATE): inactive; negative | mutagenic call (Test System: AMES SALMONELLA TYPHIMURIUM, Strain/Indicator: TA2638, Metabolic Activation: NONE, Method: STANDARD PLATE): inactive; negative | mutagenic call (Test System: E. COLI, Strain/Indicator: WP2 (PKM101), Metabolic Activation: NONE, Method: STANDARD PLATE): inactive; negative | mutagenic call (Test System: E. COLI, Strain/Indicator: WP2 UVRA (PKM101), Metabolic Activation: NONE, Method: STANDARD PLATE): active; positive

O=C1CCC(=O)N1c1ccc(Cl)cc1
mutagenic call [1]: inactive; negative | mutagenic call [6]: inactive; negative | mutagenic call [7]: inactive; negative | mutagenic call [8]: inactive; negative

O=C1c2ccccc2C(=O)c2c1ccc(O[C@@H]1O[C@H](CO[C@@H]3OC[C@@H](O)[C@H](O)[C@H]3O)[C@@H](O)[C@H](O)[C@H]1O)c2O
mutagenic call [2]: inactive; negative | mutagenic call (Test System: AMES SALMONELLA TYPHIMURIUM, Strain/Indicator: TA98, Metabolic Activation: RAT, LIVER, S-9, PCB, Method: PREINCUBATION): inactive; negative | mutagenic call [3]: inactive; negative | mutagenic call (Test System: AMES SALMONELLA TYPHIMURIUM, Strain/Indicator: TA100, Metabolic Activation: RAT, LIVER, S-9, PCB, Method: PREINCUBATION): inactive; negative | mutagenic call (Test System: UDS PRIMARY RAT HEPATOCYTES, Strain/Indicator: THY INCORP, Metabolic Activation: NONE): active; positive

Fc1c(F)c(Cl)c(F)c(Cl)c1F
mutagenic call [2]: inactive; negative | mutagenic call (Test System: AMES SALMONELLA TYPHIMURIUM, Strain/Indicator: TA98, Metabolic Activation: RAT, LIVER, S-9, AROCLOR 1254, Method: PREINCUBATION): inactive; negative | mutagenic call [3]: inactive; negative | mutagenic call (Test System: AMES SALMONELLA TYPHIMURIUM, Strain/Indicator: TA100, Metabolic Activation: RAT, LIVER, S-9, AROCLOR 1254, Method: PREINCUBATION): inactive; negative | mutagenic call [4]: inactive; negative | mutagenic call (Test System: AMES SALMONELLA TYPHIMURIUM, Strain/Indicator: TA1535, Metabolic Activation: RAT, LIVER, S-9, AROCLOR 1254, Method: PREINCUBATION): inactive; negative | mutagenic call [5]: inactive; negative | mutagenic call (Test System: AMES SALMONELLA TYPHIMURIUM, Strain/Indicator: TA1537, Metabolic Activation: RAT, LIVER, S-9, AROCLOR 1254, Method: PREINCUBATION): inactive; negative | mutagenic call (Test System: AMES SALMONELLA TYPHIMURIUM, Strain/Indicator: TA1538, Metabolic Activation: NONE, Method: PREINCUBATION): inactive; negative | mutagenic call (Test System: AMES SALMONELLA TYPHIMURIUM, Strain/Indicator: TA1538, Metabolic Activation: RAT, LIVER, S-9, AROCLOR 1254, Method: PREINCUBATION): inactive; negative | mutagenic call (Test System: CHINESE HAMSTER OVARY, Strain/Indicator: CHO-K1-BH4 (HGPRT)/6-THIOGUANINE, Metabolic Activation: NONE, Method: SUSPENSION/PLATE): inactive; negative | mutagenic call (Test System: CHINESE HAMSTER OVARY, Strain/Indicator: CHO-K1-BH4 (HGPRT)/6-THIOGUANINE, Metabolic Activation: RAT, LIVER, S-9, AROCLOR 1254, Method: SUSPENSION/PLATE): inactive; negative

ONc1ccc(Br)cc1
mutagenic call (Test System: E. COLI, Strain/Indicator: WP2 UVRA, Metabolic Activation: NONE, Method: FLUCTUATION TEST): inactive; negative

CC(=O)Nc1ccc(Oc2ccc(N)cc2)cc1
mutagenic call [1]: inactive; negative | mutagenic call (Test System: AMES SALMONELLA TYPHIMURIUM, Strain/Indicator: TA98, Metabolic Activation: RAT, LIVER, S-9, PCB, Method: STANDARD PLATE): active; positive | mutagenic call [7]: inactive; negative | mutagenic call (Test System: AMES SALMONELLA TYPHIMURIUM, Strain/Indicator: TA100, Metabolic Activation: RAT, LIVER, S-9, PCB, Method: STANDARD PLATE): active; positive

O=S(O)(O)=S
mutagenic call [1]: inactive; negative | mutagenic call [6]: inactive; negative | mutagenic call [7]: inactive; negative | mutagenic call [8]: inactive; negative | mutagenic call (Test System: AMES SALMONELLA TYPHIMURIUM, Strain/Indicator: TA1535, Metabolic Activation: NONE, Method: STANDARD PLATE): inactive; negative | mutagenic call (Test System: AMES SALMONELLA TYPHIMURIUM, Strain/Indicator: TA1535, Metabolic Activation: RAT, LIVER, S-9, AROCLOR 1254, Method: STANDARD PLATE): inactive; negative | mutagenic call (Test System: AMES SALMONELLA TYPHIMURIUM, Strain/Indicator: TA1537, Metabolic Activation: NONE, Method: STANDARD PLATE): inactive; negative | mutagenic call (Test System: AMES SALMONELLA TYPHIMURIUM, Strain/Indicator: TA1537, Metabolic Activation: RAT, LIVER, S-9, AROCLOR 1254, Method: STANDARD PLATE): inactive; negative | mutagenic call (Test System: AMES SALMONELLA TYPHIMURIUM, Strain/Indicator: TA1538, Metabolic Activation: NONE, Method: STANDARD PLATE): inactive; negative | mutagenic call (Test System: AMES SALMONELLA TYPHIMURIUM, Strain/Indicator: TA1538, Metabolic Activation: RAT, LIVER, S-9, AROCLOR 1254, Method: STANDARD PLATE): inactive; negative | mutagenic call (Test System: E. COLI, Strain/Indicator: WP2, Metabolic Activation: NONE, Method: STANDARD PLATE): inactive; negative | mutagenic call (Test System: E. COLI, Strain/Indicator: WP2, Metabolic Activation: RAT, LIVER, S-9, AROCLOR 1254, Method: STANDARD PLATE): inactive; negative

OC1c2c(ccc3c2ccc2ccccc23)C2OC2C1O (stereo unspecified)
mutagenic call [2]: active; positive | mutagenic call (Test System: CHINESE HAMSTER V-79, Strain/Indicator: V-79/6-THIOGUANINE, Metabolic Activation: NONE): active; positive

ClCc1c2ccccc2cc2c1ccc1ccccc12
mutagenic call [7]: active; positive
